Reference: patent publication US10172868B2, “Substituted quinazolines for inhibiting kinase activity” (NeuPharma, Inc., priority 2013, dated 2019)

What was measured:
[1] = biological target: EGFR (ErbB1) (Homo sapiens (Human), UniProt P00533); assay: Z'-LYTE kinase inhibition assay, EGFR; format: biochemical; conditions: for inhibition at 1 µM: read-out: % inhibition against EGFR (Compound at 1 μM); for inhibition at 0.041 µM: read-out: % inhibition against EGFR (Compound at 0.041 μM); for IC50: read-out: IC50 against EGFR
EGFR (ErbB1), sequence (P00533 25-1210): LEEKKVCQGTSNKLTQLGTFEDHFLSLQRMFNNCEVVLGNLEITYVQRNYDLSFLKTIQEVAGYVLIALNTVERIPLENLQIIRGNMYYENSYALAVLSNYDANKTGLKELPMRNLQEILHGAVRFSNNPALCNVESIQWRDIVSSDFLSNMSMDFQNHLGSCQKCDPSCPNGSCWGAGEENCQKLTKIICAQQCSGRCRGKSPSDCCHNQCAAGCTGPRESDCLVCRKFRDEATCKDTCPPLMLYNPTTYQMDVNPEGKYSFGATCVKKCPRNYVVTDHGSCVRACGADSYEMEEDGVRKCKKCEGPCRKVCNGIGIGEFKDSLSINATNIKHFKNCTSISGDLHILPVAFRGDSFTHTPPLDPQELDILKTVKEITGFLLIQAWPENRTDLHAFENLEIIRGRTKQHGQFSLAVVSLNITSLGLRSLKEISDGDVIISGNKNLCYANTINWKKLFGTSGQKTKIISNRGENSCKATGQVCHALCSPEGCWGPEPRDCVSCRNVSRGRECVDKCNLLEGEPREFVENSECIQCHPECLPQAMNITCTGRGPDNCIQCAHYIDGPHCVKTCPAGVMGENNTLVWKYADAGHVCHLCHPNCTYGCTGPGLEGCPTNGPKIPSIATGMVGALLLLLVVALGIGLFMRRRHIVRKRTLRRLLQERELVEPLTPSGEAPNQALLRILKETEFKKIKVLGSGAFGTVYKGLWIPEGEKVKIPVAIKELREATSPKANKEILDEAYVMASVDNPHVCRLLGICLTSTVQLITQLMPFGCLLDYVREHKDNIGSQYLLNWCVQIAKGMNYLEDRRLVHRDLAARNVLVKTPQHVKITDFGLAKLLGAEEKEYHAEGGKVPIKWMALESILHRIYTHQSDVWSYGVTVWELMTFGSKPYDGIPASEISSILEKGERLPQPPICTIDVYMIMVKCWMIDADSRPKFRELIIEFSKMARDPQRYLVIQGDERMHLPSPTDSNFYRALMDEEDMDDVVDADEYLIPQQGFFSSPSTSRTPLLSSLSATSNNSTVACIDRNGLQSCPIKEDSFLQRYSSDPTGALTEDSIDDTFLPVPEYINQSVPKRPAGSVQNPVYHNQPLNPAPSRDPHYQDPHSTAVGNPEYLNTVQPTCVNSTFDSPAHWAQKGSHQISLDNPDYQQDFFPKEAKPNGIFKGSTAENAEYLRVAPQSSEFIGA
How it was run: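 IC50 values derived from 10-point, 3-fold compound dilution series (1% DMSO final) using Z'-LYTE fluorescence readout after 60-min development. Reaction: EGFR (1.1-5.25 ng) with 2 μM peptide, 60 min at room temperature in HEPES pH 7.5 buffer containing MgCl2, MnCl2, EGTA, DTT and BRIJ-35.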

[2] = tested on: H1975 cells; assay: Inhibition of cancer cell growth, MTT assay, H1975; conditions: Homo sapiens, NCI-H1975, 72 h, read-out: IC50 in H1975 cells
[3] = tested on: HCC827 cells; assay: cells; conditions: Homo sapiens, HCC827, 72 h, read-out: IC50 in HCC827 cells
Description: Taxol (as a positive control. Sigma) and compounds were dissolved in DMSO (Sigma), and the final concentration of DMSO in the medium was 1%. Tumor cells were plated in 96-well plates at densities of about 4000 cells/well of a 96-well plate and allowed to adhere/grow for 24 h. They were then treated with various concentrations of drug for 72 h, 3-(4,5-Dimethylthiazol-2-yl)-2,5-diphenyltetrazolium bromide (MTT, Sigma) was used to determine the number of viable cells at the time of compound addition and the number of cells remaining after 72 h compound exposure. The number of cells remaining after 72 h was compared to the number of viable cells at the time of compound addition by measuring the absorbance at 570 nm, allowing for the calculation of growth inhibition.
(§1) All concentrations of compounds were tested in triplicate and controls were averaged over 4 wells. IC50 was calculated by plotting the concentration of compound vs the percentage of inhibition in treated wells using GraphPad Prism 5.
The scale utilized in Tables 5 is as follows: +++ less than 100 nM; ++ between 100 nM and 500 nM; and + greater than 500 nM.

[4] = biological target: EGFR (ErbB1) T790M L858R (Homo sapiens (Human), UniProt P00533, L858R/T790M); assay: Z'-LYTE kinase inhibition assay, EGFR L858R/T790M; format: biochemical; conditions: for inhibition at 1 µM: read-out: % inhibition against EGFR L858R/T790M (Compound at 1 μM); for IC50: read-out: IC50 against EGFR L858R/T790M; for inhibition at 0.0137 µM: read-out: % inhibition against EGFR L858R/T790M (Compound at 0.0137 μM)
EGFR (ErbB1) T790M L858R, sequence (P00533 25-1210 T790M/L858R): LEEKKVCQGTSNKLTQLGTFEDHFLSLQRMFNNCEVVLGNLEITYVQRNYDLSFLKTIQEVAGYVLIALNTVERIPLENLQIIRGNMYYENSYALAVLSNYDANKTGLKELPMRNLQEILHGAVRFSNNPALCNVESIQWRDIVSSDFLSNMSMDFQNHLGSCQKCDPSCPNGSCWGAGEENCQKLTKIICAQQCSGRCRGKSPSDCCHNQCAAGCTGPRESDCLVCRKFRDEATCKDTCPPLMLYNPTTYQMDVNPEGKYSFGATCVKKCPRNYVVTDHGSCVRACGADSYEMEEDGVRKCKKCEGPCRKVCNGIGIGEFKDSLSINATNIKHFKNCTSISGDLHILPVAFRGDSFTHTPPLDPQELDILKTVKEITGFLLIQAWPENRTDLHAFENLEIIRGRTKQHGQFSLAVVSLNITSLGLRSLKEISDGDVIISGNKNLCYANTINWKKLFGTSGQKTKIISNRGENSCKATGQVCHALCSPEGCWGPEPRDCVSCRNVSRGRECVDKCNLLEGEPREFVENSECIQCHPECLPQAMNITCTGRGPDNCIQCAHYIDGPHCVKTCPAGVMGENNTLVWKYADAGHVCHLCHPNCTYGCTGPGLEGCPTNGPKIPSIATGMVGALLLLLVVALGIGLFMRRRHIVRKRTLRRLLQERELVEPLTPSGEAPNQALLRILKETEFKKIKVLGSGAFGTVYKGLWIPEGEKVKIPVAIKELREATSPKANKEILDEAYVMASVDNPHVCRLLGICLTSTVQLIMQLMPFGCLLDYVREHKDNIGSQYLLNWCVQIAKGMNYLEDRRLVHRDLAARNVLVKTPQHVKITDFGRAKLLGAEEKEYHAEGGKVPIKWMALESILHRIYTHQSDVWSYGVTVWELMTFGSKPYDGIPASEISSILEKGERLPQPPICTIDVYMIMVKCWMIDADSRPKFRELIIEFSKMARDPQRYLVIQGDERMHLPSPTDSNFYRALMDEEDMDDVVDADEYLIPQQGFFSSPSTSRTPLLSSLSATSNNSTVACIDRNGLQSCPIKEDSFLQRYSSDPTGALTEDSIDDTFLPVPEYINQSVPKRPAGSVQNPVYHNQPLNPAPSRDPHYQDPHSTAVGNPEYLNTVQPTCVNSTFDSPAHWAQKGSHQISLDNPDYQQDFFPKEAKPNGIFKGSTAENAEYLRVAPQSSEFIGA
How it was run: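 IC50 taken from 10-point, 3-fold serial dilutions tested in 1% DMSO. The mutant kinase and peptide were prepared in HEPES pH 6.5 buffer with BRIJ-35, MgCl2, EGTA and NaN3, then reacted with ATP for 1 h at room temperature. Development reagent was added for a further hour before the fluorescence readout.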

[5] = tested on: H3255 cells; assay: Inhibition of cancer cell growth, MTT assay, H3255; conditions: Homo sapiens, NCI-H3255, 72 h, read-out: IC50 in H3255 cells
Description: (§2) Inhibition of cell growth by compounds was measured using MTT assay (Mosmann, T., Journal of Immunological Methods, 1983, 65, 55-63). Tumor cell lines were purchased from ATCC (American Type Culture Collection, Manassas, Va.). All cell lines were maintained in RPMI 1640 (Hyclone) supplemented with 10% fetal bovine serum (FBS, Hyclone), glutamine (2 mM, Hyclone), and antibiotics (penicillin 100 U/mL and streptomycin 50 μg/mL) at 37° C. in a humidified atmosphere of 5% CO2 in air. Taxol (as a positive control. Sigma) and compounds were dissolved in DMSO (Sigma), and the final concentration of DMSO in the medium was 1%. Tumor cells were plated in 96-well plates at densities of about 4000 cells/well of a 96-well plate and allowed to adhere/grow for 24 h. They were then treated with various concentrations of drug for 72 h, 3-(4,5-Dimethylthiazol-2-yl)-2,5-diphenyltetrazolium bromide (MTT, Sigma) was used to determine the number of viable cells at the time of compound addition and the number of cells remaining after 72 h compound exposure. The number of cells remaining after 72 h was compared to the number of viable cells at the time of compound addition by measuring the absorbance at 570 nm, allowing for the calculation of growth inhibition.
as §1

[6] = tested on: H1299 cells; assay: Inhibition of cancer cell growth, MTT assay, H1299; conditions: Homo sapiens, NCI-H1299, 72 h, read-out: IC50 in H1299 cells
Description: as §2, §1

| SMILES | inhibition at 1 µM [1] [%] | IC50 [2] [nM] | IC50 [3] [nM] | inhibition at 1 µM [4] [%] | inhibition at 0.041 µM [1] [%] | IC50 [1] [nM] | IC50 [5] [nM] | IC50 [4] [nM] | IC50 [6] [nM] | inhibition at 0.0137 µM [4] [%] |
| --- | --- | --- | --- | --- | --- | --- | --- | --- | --- | --- |
| Clc1cccc(-c2cccc3cnc(Nc4ccc(N5CCOCC5)cc4)nc23)c1 [Example C008, 8-(3-chlorophenyl)-N-(4-morpholinophenyl)quinazolin-2-amine] | < 50 | > 500 | > 500 | < 50 |  |  |  |  |  |  |
| C=CC(=O)Nc1cccc(-c2cccc3cnc(Nc4ccc(N5CCN(C)CC5)nc4)nc23)c1 [Example C041, N-(3-(2-((6-(4-methylpiperazin-1-yl)pyridin-3-yl)amino)quinazolin-8-yl)phenyl)acrylamide] |  | 100 to 500 | < 100 |  | > 50 | < 100 | > 500 | < 100 | > 500 |  |
| c1ccc(-c2cccc3cnc(Nc4ccc(N5CCOCC5)cc4)nc23)cc1 [Example C004, N-(4-morpholinophenyl)-8-phenylquinazolin-2-amine] | < 50 | > 500 | > 500 | > 50 |  |  |  |  |  |  |
| C=CC(=O)Nc1cccc(-c2cccc3cnc(Nc4ccc(N5CCN(C)CC5)cc4F)nc23)c1 [Example C044, N-(3-(2-((2-fluoro-4-(4-methylpiperazin-1-yl)phenyl)amino)quinazolin-8-yl)phenyl)acrylamide] |  | < 100 |  |  | > 50 | < 100 | > 500 | < 100 | > 500 | > 50 |
| C=CC(=O)Nc1cccc(-c2cccc3cnc(Nc4ccc(N5CCN(C)CC5)cc4OC)nc23)c1 [Example C003, N-(3-(2-((2-methoxy-4-(4-methylpiperazin-1-yl)phenyl)amino)quinazolin-8-yl)phenyl)acrylamide] | > 50 | 100 to 500 | < 100 | > 50 |  |  | > 500 | < 100 | > 500 | > 50 |
| C=CC(=O)Nc1cccc(-c2cccc3cnc(Nc4ccc(N5CCOCC5)cc4OC)nc23)c1 [Example C002, N-(3-(2-((2-methoxy-4-morpholinophenyl)amino)quinazolin-8-yl)phenyl)acrylamide] | < 50 |  | 100 to 500 | > 50 |  |  | > 500 |  |  |  |
| C=CC(=O)Nc1cccc(-c2cccc3cnc(Nc4ccc(N5CCN(C)CC5)cc4)nc23)c1 [Example C021, N-(3-(2-((4-(4-methylpiperazin-1-yl)phenyl)amino)quinazolin-8-yl)phenyl)acrylamide] |  | < 100 | < 100 |  | > 50 | < 100 | 100 to 500 | < 100 | 100 to 500 |  |
| C=CC(=O)Nc1cccc(-c2nccc3cnc(Nc4ccc(N5CCOCC5)cc4)nc23)c1 [Example C012, N-(3-(2-((4-morpholinophenyl)amino)pyrido[3,4-d]pyrimidin-8-yl)phenyl)acrylamide] | < 50 | 100 to 500 | < 100 | > 50 |  |  |  |  |  |  |
| Fc1cccc(-c2cccc3cnc(Nc4ccc(N5CCOCC5)cc4)nc23)c1 [Example C009, 8-(3-fluorophenyl)-N-(4-morpholinophenyl)quinazolin-2-amine] | < 50 | > 500 | > 500 | < 50 |  |  |  |  |  |  |
| C=CC(=O)Nc1cccc(-c2nccc3c(N)nc(Nc4ccc(N5CCOCC5)cc4)nc23)c1 [Example C005, N-(3-(4-amino-2-((4-morpholinophenyl)amino)pyrido[3,4-d]pyrimidin-8-yl)phenyl)acrylamide] | > 50 | > 500 | 100 to 500 | < 50 |  |  |  |  |  |  |
| C=CC(=O)Nc1cccc(-c2cccc3cnc(Nc4ccc(N5CCN(CCF)CC5)cc4)nc23)c1 [Example C053, N-(3-(2-((4-(4-(2-fluoroethyl)piperazin-1-yl)phenyl)amino)quinazolin-8-yl)phenyl)acrylamide] | > 50 | < 100 |  | > 50 | < 50 |  |  |  |  | > 50 |
| Fc1ccccc1-c1cccc2cnc(Nc3ccc(N4CCOCC4)cc3)nc12 [Example C010, 8-(2-fluorophenyl)-N-(4-morpholinophenyl)quinazolin-2-amine] | < 50 | > 500 | > 500 | < 50 |  |  |  |  |  |  |
| Fc1ccc(Cl)cc1-c1cccc2cnc(Nc3ccc(N4CCOCC4)cc3)nc12 [Example C007, 8-(5-chloro-2-fluorophenyl)-N-(4-morpholinophenyl)quinazolin-2-amine] | < 50 | > 500 | > 500 | < 50 |  |  |  |  |  |  |
| Clc1ccccc1-c1cccc2cnc(Nc3ccc(N4CCOCC4)cc3)nc12 [Example C011, 8-(2-chlorophenyl)-N-(4-morpholinophenyl)quinazolin-2-amine] | < 50 | > 500 | > 500 | < 50 |  |  |  |  |  |  |
| C=CC(=O)Nc1cccc(-c2cccc3cnc(Nc4ccc(N5CCOCC5)cc4)nc23)c1 [Example C001, N-(3-(2-((4-morpholinophenyl)amino)quinazolin-8-yl)phenyl)acrylamide] | > 50 | 100 to 500 | < 100 | > 50 |  |  | > 500 | < 100 | > 500 | < 50 |
| C=CC(=O)Nc1cccc(-c2cccc3cnc(Nc4ccc(N5CCN(CCO)CC5)cc4)nc23)c1 [Example C059, N-(3-(2-((4-(4-(2-hydroxyethyl)piperazin-1-yl)phenyl)amino)quinazolin-8-yl)phenyl)acrylamide] |  | < 100 | < 100 |  | > 50 | < 100 | 100 to 500 | < 100 | > 500 |  |
